Results taken from ChEMBL document CHEMBL1150444, “A new class of diacidic nonpeptide angiotensin II receptor antagonists” (Bioorg Med Chem Lett, 1994).

What was measured:
[1] = target: T1, Type-1 angiotensin II receptor (Bos taurus, UniProt P25104); test: Concentration required to inhibit [125I]AII binding to Angiotensin II receptor from membrane fractions of bovine adrenal cortex; assay type: tissue-based
T1 sequence (P25104 whole entry): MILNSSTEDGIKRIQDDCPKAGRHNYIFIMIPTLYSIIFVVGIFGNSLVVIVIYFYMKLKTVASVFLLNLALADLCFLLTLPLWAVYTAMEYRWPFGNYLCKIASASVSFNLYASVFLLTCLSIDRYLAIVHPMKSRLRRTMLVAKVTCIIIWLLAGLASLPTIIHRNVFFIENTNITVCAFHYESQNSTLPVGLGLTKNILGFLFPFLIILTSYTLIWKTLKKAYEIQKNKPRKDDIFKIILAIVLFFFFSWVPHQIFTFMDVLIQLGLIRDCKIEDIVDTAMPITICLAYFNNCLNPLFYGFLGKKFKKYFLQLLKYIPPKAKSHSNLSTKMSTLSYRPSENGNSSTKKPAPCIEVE

Oryctolagus cuniculus [2] = organism: Oryctolagus cuniculus; test: In vitro inhibition of contraction of rabbit aorta strips measured as pA2 calculated by the method of Van Rossum; assay type: functional; details: read-out: pA2 (converted)
Oryctolagus cuniculus [3] = organism: Oryctolagus cuniculus; test: In vitro inhibition of contraction of rabbit aorta strips measured as pD2 calculated by the method of Van Rossum; assay type: functional
Oryctolagus cuniculus [4] = organism: Oryctolagus cuniculus; test: Percent response at a dose of […] on AII induced contraction in isolated rabbit aorta, expressed as percent of maximal response; assay type: functional
Oryctolagus cuniculus [5] = organism: Oryctolagus cuniculus; test: Percent response at a dose of 9M on AII induced contraction in isolated rabbit aorta, expressed as percent of maximal response; assay type: functional
Rattus norvegicus = test: Inhibitory effect at a dose of 1mg/gk, po on AII induced pressor response at a dose of 100ng/kg, iv in conscious normotensive rats; assay type: functional
Oryctolagus cuniculus [6] = organism: Oryctolagus cuniculus; test: Percent response at a dose of 8M on AII induced contraction in isolated rabbit aorta, expressed as percent of maximal response; assay type: functional

Row | SMILES | IC50 [1] | Kb (Oryctolagus cuniculus [2]) | pD2 (Oryctolagus cuniculus [3]) | Response (Oryctolagus cuniculus [4]) | Response (Oryctolagus cuniculus [5]) | Inhibition (Rattus norvegicus) | Response (Oryctolagus cuniculus [6])
1 | CCCc1cn2nccc2n1Cc1ccc(-c2ccccc2-c2nn[nH]n2)cc1 | 3300 nM | 57.5 nM | – | – | – | – | –
2 | CCCc1cn2ncc(C(=O)O)c2n1Cc1ccc(-c2ccccc2-c2nn[nH]n2)cc1 | 48 nM | – | 9.58 | – | – | – | –
3 | CCCCc1nc2c(C)cnc(C(=O)O)c2n1Cc1ccc(-c2ccccc2-c2nn[nH]n2)cc1 | 36 nM | – | 9.16 | – | – | – | –
4 | CCCCc1nc2c(C)cncc2n1Cc1ccc(-c2ccccc2-c2nnn[nH]2)cc1 | 54 nM | 12 nM | – | – | – | – | –
5 | CCSc1nc2c(C)sc(C(=O)O)c2n1Cc1ccc(-c2ccccc2-c2nn[nH]n2)cc1 | 500 nM | – | 9.65 | 65% | 25% | 100% | –
6 | CCOc1nc2ccccc2n1Cc1ccc(-c2ccccc2-c2nnn[nH]2)cc1 | 390 nM | 11.7 nM | – | – | – | – | –
7 | CCSc1nc2c(C)scc2n1Cc1ccc(-c2ccccc2-c2nn[nH]n2)cc1 | 1200 nM | 5.5 nM | – | – | 85% | 18% | 85%
8 | CCOc1nc2cccc(C(=O)O)c2n1Cc1ccc(-c2ccccc2-c2nnn[nH]2)cc1 [CANDESARTAN] | – | – | 9.97 | – | – | – | –
